Assay results published in article PMC6138237, “Machine intelligence decrypts β-lapachone as an allosteric 5-lipoxygenase inhibitor” (Chemical Science, 2018).
Read-outs that look alike come from different tables or passages of the source.

Key:
[1] = molecular target: GSK3β (Homo sapiens, UniProt P49841); experiment: ExpresS Diversity Kinase Profile, Cerep (LANCE): GSK3β; assay type: biochemical
[2] = molecular target: CHK2 (Homo sapiens, UniProt O96017); experiment: ExpresS Diversity Kinase Profile, Cerep (LANCE): CHK2; assay type: biochemical
CHK2, sequence (O96017 whole entry): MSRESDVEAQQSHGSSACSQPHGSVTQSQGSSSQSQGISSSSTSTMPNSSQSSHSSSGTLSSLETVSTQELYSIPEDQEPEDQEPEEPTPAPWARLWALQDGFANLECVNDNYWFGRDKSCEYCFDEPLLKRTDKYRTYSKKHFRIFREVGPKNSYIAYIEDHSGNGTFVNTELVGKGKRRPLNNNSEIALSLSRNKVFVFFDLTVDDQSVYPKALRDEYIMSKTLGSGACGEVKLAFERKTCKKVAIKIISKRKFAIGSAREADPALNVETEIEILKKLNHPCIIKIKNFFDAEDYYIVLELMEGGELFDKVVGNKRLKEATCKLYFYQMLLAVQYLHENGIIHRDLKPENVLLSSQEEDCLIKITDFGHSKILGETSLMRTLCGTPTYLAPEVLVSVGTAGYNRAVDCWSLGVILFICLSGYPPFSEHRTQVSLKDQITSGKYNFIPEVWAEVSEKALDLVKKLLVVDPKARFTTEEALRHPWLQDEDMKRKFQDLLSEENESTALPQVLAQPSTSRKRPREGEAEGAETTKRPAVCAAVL

[3] = molecular target: T1, EP3 (Homo sapiens, UniProt P43115); experiment: EP3 functional agonist assay, Cerep (impedance)
T1 sequence (P43115 1-390): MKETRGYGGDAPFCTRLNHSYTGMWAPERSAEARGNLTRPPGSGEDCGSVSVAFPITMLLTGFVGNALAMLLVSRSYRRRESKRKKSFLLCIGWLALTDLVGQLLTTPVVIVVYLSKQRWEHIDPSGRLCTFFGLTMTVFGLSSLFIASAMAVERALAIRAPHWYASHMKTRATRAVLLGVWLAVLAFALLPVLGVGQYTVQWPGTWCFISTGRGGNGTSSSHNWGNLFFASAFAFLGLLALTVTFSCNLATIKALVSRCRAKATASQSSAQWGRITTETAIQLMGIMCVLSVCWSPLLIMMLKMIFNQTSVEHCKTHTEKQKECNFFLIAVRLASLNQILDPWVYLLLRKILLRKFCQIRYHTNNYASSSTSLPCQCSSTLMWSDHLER

[4] = molecular target: T2, IKKα (Homo sapiens, UniProt O15111); experiment: ExpresS Diversity Kinase Profile, Cerep (LANCE): IKKα; assay type: biochemical
T2 sequence (O15111 1-745): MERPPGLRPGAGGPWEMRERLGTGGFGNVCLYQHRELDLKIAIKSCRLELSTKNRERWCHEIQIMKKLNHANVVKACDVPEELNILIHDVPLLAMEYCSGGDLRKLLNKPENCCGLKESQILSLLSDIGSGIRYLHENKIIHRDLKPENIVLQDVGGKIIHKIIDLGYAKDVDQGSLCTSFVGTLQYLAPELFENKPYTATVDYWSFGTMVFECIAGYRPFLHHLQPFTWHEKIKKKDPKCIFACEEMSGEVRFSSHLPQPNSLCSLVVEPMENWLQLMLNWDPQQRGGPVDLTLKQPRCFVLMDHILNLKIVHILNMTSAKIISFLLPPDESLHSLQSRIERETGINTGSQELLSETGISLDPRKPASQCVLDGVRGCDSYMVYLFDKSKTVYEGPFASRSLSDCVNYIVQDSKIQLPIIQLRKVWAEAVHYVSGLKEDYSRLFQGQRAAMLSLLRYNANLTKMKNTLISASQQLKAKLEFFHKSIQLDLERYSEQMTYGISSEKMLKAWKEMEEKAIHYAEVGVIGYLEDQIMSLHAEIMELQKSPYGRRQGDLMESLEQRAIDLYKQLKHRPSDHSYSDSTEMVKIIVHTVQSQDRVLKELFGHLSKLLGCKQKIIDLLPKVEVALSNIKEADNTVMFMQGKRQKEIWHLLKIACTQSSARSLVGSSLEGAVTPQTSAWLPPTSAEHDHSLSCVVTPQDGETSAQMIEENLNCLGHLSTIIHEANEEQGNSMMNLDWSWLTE

[5] = molecular target: T3, 12-LO (Homo sapiens, UniProt P18054); experiment: 12-LO inhibition assay, Cerep (Method A, photometry); assay type: biochemical
T3 sequence (P18054 1-663): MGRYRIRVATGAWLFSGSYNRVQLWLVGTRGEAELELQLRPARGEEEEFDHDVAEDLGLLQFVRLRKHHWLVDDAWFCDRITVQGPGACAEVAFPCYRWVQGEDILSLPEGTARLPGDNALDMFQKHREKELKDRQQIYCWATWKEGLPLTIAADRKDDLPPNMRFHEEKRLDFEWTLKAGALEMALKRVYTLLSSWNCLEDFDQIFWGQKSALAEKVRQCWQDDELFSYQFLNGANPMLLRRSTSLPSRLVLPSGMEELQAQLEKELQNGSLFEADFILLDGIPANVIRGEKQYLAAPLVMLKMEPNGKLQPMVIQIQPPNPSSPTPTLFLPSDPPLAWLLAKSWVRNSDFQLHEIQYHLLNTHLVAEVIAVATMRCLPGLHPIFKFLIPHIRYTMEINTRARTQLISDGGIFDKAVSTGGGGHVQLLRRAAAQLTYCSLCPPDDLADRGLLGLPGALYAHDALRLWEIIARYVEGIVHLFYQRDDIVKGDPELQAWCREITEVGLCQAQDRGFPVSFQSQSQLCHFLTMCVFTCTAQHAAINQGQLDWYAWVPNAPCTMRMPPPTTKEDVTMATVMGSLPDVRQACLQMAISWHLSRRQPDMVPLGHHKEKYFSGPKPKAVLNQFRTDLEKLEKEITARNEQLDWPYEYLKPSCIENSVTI

[6] = molecular target: T4, 5-LO (Homo sapiens, UniProt P09917); assay type: biochemical
T4 sequence (P09917 1-674): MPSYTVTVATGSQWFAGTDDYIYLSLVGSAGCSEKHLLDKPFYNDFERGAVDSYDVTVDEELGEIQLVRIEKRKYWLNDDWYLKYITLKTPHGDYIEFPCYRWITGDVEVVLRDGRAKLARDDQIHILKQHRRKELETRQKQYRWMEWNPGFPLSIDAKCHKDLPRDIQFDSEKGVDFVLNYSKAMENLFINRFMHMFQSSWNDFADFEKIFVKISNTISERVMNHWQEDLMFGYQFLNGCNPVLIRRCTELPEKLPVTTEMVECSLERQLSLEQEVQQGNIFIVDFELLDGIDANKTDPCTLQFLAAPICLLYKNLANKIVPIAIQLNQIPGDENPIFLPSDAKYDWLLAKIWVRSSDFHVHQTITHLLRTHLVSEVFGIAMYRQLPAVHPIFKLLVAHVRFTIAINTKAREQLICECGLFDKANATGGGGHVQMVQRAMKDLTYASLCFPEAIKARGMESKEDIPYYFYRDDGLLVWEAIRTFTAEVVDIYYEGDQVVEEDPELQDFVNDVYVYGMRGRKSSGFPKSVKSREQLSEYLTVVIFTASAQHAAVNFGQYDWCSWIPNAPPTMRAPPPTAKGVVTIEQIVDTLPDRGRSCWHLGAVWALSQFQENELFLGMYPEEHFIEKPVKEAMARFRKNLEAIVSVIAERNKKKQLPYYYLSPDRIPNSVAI

[7] = Flag: Interference, read-out: % Inhibition of control values, 1st measurement
[8] = Flag: Interference, read-out: % Inhibition of control values, 2nd measurement
[9] = n = 2, Flag: Interference, read-out: % Inhibition of control values, Mean

GSK3β, sequence (P49841 whole entry): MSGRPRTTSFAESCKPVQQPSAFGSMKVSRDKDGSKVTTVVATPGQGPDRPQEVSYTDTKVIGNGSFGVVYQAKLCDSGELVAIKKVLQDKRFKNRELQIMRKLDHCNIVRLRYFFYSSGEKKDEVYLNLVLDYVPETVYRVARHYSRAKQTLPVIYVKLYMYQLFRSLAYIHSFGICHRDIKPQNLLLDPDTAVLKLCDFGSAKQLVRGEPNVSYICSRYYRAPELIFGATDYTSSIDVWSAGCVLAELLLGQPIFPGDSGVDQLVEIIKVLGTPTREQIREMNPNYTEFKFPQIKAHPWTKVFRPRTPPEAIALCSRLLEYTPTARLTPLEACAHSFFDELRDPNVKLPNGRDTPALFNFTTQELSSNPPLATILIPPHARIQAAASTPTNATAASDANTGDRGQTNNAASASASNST

CC1(C)CCC2=C(O1)c1ccccc1C(=O)C2=O [β-Lapachone]
inhibition at 150 µM ([1]; n = 2, read-out: % Inhibition of control values, Mean): 94.2% | inhibition at 150 µM ([1]; read-out: % Inhibition of control values, 1st measurement): 95% | inhibition at 150 µM ([1]; read-out: % Inhibition of control values, 2nd measurement): 93.4% | inhibition at 150 µM [2, 7]: 46.6% | inhibition at 150 µM [2, 8]: 59.5% | inhibition at 150 µM [2, 9]: 53.1% | remaining activity at 150 µM ([3]; read-out: % of control values, 1st measurement): 18.6% | remaining activity at 150 µM ([3]; read-out: % of control values, 2nd measurement): 15.5% | remaining activity at 150 µM ([3]; read-out: % of control values, Mean): 17% | inhibition at 150 µM [4, 7]: 59.5% | inhibition at 150 µM [4, 8]: 59.4% | inhibition at 150 µM [4, 9]: 59.5% | inhibition at 5 µM ([5]; 12-LO, 5 µM, read-out: % inhibition of control values, 1st measure): 40.7% | inhibition at 5 µM ([5]; 12-LO, 5 µM, read-out: % inhibition of control values, 2nd measure): 35.3% | inhibition at 5 µM ([5]; read-out: % inhibition of control values, Mean): 38% | inhibition of 5-LO at varying arachidonic acid concentrations ([6]; AA 2.5–40 μM, n = 3): non-competitive inhibition | IC50 ([6]; IC50 (3 μg mL^–1, PC), competition with phosphatidylcholine 3 μg/mL, n = 3): 0.1 µM | IC50 ([6]; IC50 (30 μg mL^–1, PC), competition with phosphatidylcholine 30 μg/mL, n = 3): 1 µM | IC50 ([6]; IC50 (with DTT), cell-free, reducing conditions, 1 mM dithiothreitol (DTT), n = 3): 0.24 µM | IC50 ([6]; IC50 (without Triton X100), cell-free, plus 1 mM DTT, no Triton X100, n = 3): 0.12 µM | IC50 ([6]; cell-free, absence of DTT, n = 3, read-out: IC50 (without DTT)): > 30 µM | IC50 ([6]; cell-free, plus 1 mM DTT, 0.01% Triton X100, n = 3, read-out: IC50 (with Triton X100)): 0.09 µM | 5-LO activity upon wash-out ([6]; wash-out experiment, 10-fold dilution, plus 1 mM DTT): reinstated
